The source of these data is patent US20210023232A1, “COMBINATION OF POLYETHYLENE GLYCOL AND RAPAMYCIN AND USE THEREOF” (JENKEM TECHNOLOGY CO., LTD. (TIANJIN), priority 2018, published 2021).

This assay relates to KLH antibody. Briefly: Influence on keyhole limpet hemoeyanin (KLH) antibody level in immunized mice, serum ELISA potency assay. As to conditions: for KLH antibody ELISA OD value, data obtained after the third immunization (1: 1K) / KLH antibody ELISA OD value, data obtained after the fourth immunization (1: 1K) / KLH antibody ELISA OD value, data obtained after the third immunization (1: 3K) / KLH antibody ELISA OD value, data obtained after the fourth immunization (1: 3K): Balb/c mice immunized with KLH, test substance given on day 0 and day 7, x ± sd; for KLH antibody ELISA OD value, data obtained after the third immunization (1: 1K) / KLH antibody ELISA OD value, data obtained after the fourth immunization (1: 1K): serum dilution 1:1K; for KLH antibody ELISA OD value, data obtained after the third immunization (1: 1K) / KLH antibody ELISA OD value, data obtained after the third immunization (1: 3K): tail blood day 28-29; for KLH antibody ELISA OD value, data obtained after the fourth immunization (1: 1K) / KLH antibody ELISA OD value, data obtained after the fourth immunization (1: 3K): tail blood day 40-41; for KLH antibody ELISA OD value, data obtained after the third immunization (1: 3K) / KLH antibody ELISA OD value, data obtained after the fourth immunization (1: 3K): serum dilution 1:3K. Format: in vivo, mouse. As for the experimental part:
2.4.1. Antigenic Information: Immunogen: KLH; Tested Substance: KLH
Primary immunization: On the first day, 100 ug antigen (immunogen) and Freund's complete adjuvant in the same volume were formed into a water-in-oil compound by means of mutual injection with a syringe, and then the compound was given to each of 18 mice by subcutaneous multi-point injection.
Second immunization: On the 14th day, 100 ug antigen (immunogen) and Freund's incomplete adjuvant in the same volume were formed into a water-in-oil compound by means of mutual injection with a syringe, and then the compound was given to each of 18 mice by subcutaneous multi-point injection.
Third immunization: On the 24th day, 100 ug antigen (immunogen) and Freund's incomplete adjuvant in the same volume were formed into a water-in-oil compound by means of mutual injection with a syringe, and then the compound was given to each of 18 mice by subcutaneous multi-point injection.
Test of tail blood: On the 28th-29th day, about 20 ul tail blood was collected from the tail vein, followed by 30 min RT and 5 min 5000 rpm centrifugation; then haemocyte precipitate was removed; and serum was taken for Elisa potency assay.
Fourth immunization: On the 34th day, 100 ug antigen (immunogen) and Freund's incomplete adjuvant in the same volume were formed into a water-in-oil compound by means of mutual injection with a syringe, and then the compound was given to each of 18 mice by subcutaneous multi-point injection.
Group G2 (Group IV): immunization was performed with reference to group G1; moreover, […] JK1208R (prepared in Example 1) was given by intravenous injection on the 0th day and 7th day, respectively.
Group G2 (Group IV): immunization was performed with reference to group G1; moreover, 52 μg rapamycin was given by oral administration on the 0th day and 7th day, respectively.
Test of tail blood: On the 40th-41st day, about 20 ul tail blood was collected from the tail vein, followed by 30 min RT and 5 min 5000 rpm centrifugation; then haemocyte precipitate was removed; and serum was taken for ELISA potency assay.
Coating: 10 ug antigen (tested substance) and 10 ml coating buffer (1.6 g […]+2.92 g NaHCO3+100 ml deionized water) were mixed; the solution was applied to the Elisa microplate, 100 ul per pore; the microplate was incubated for 2 h at 37° C. or kept still overnight at 4° C.
Blocking: The antigen coating buffer was sucked and removed from the coated microplate; a blocking buffer (5% dried skimmed milk and coating buffer) was directly added, 150 ul per pore; the microplate was treated for 2 h at 37° C., followed by three times of washing with de-ionized water; then the microplate was provisionally stored at 4° C.
Assay: serum and 1×PBS was mixed at a ratio of 1:1000; 150 ul diluent was added into the first pore; 100 ul 1×PBS were respectively added into each of the 2nd-8th pores; 50 ul liquid was transferred from the first pore into the second pore, followed by suction blow for 10 times; then, 50 ul liquid was transferred into the third pore, followed by suction blow for 10 times; next, 50 ul liquid was transferred into the fourth pore, followed by suction blow for 10 times; the test was done in the similar way in turn until the 7th pore, 50 ul liquid was removed from the 7th pore; the […] pore was a negative control group; the microplate was incubated for 1 h at 37° C., followed by three times of washing with de-ionized water; then a second antibody (goat-anti-mouse IgG-HRP 1:10000 1×PBS) was added, 100 ul each pore; the microplate was incubated for 30 min at 37° C., followed by three times of washing with de-ionized water; a chromogenic solution was added (according to the instructions on the reagent box), 100 ul each pore; the microplate was incubated for 10 min at 37° C. and then ended (2M sulphuric acid, 30 ul per pore). The OD value was tested with the microplate reader.

With `CO[C@H]1C[C@@H]2CC[C@@H](C)[C@@](O)(O2)C(=O)C(=O)N2CCCC[C@H]2C(=O)O[C@H]([C@H](C)C[C@@H]2CC[C@@H](O)[C@H](OC)C2)CC(=O)[C@H](C)/C=C(\C)[C@@H](O)[C@@H](OC)C(=O)[C@H](C)C[C@H](C)/C=C/C=C/C=C/1C` [rapamycin], the “KLH antibody ELISA OD value, data obtained after the third immunization (1: 1K)” value is 1.77 ± 0.33; the “KLH antibody ELISA OD value, data obtained after the fourth immunization (1: 1K)” value is recorded as 2.56 ± 0.11; the “KLH antibody ELISA OD value, data obtained after the third immunization (1: 3K)” value was found to be 1.49 ± 0.38; the “KLH antibody ELISA OD value, data obtained after the fourth immunization (1: 3K)” value is reported as 2.40 ± 0.24.

Take “monomethoxy polyethylene glycol-glutamic dipeptide-rapamycin [JK1208R]”: the “KLH antibody ELISA OD value, data obtained after the third immunization (1: 1K)” value was 1.33 ± 0.24; the “KLH antibody ELISA OD value, data obtained after the fourth immunization (1: 1K)” value was 1.85 ± 0.32; the “KLH antibody ELISA OD value, data obtained after the third immunization (1: 3K)” value is listed as 0.86 ± 0.20; the “KLH antibody ELISA OD value, data obtained after the fourth immunization (1: 3K)” value is on record as 1.54 ± 0.31. Further, for the setting “after the fourth immunization”, the “Effect on generation of the KLH antibody” value was “could remarkably resist the generation of the KLH antibody”. Moreover, the “Statistical difference from immune model group after the fourth immunization” value (at 1:1K and 1:3K) was “show remarkably difference”. In addition, the “Statistical difference from immune model group after the third immunization” value (at 1:3K) is on record as “show remarkably difference”.
